Results as given in patent EP0097071A1, “Benzhydryl sulfinylacetamide derivatives and their therapeutical use” (LABORATOIRE L. LAFON Société anonyme dite:, priority 1982, dated 1983).

Columns and labels:
SNC = assay: Essential activity on the CNS (Tableau I and conclusions of the neuropsychopharmacological study); type: in vivo; conditions: in vivo
Text: Dans le tableau I ci-après, on a consigné un certain nombre de composés selon la formule I de façon nullement limitative, en mentionnant l'activité essentielle sur le SNC.
Les composés de formule I agissent tous sur le SNC. Les produits des exemples 1-3 et 7-8 sont des agents stimulants, en revanche les produits des exemples 4-6 sont des agents sédatifs.

souris [1] = assay: Four plates test; type: in vivo; conditions: 0,5 h after administration, dose not stated
Protocol: (§1) On a résumé ci-après les résultats des essais pharmacologiques qui ont été entrepris avec les produits selon la présente addition. Dans ces essais, les produits de formule I à étudier ont été administrés par voie intrapéritonéale, en suspension dans une solution aqueuse de gomme arabique, sous un volume de 20 ml/kg chez la souris mâle et sous un volume de 5 ml/kg chez le rat mâle.
(§2) Les essais sont effectués sur des lots de 10 souris (par dose) 0,5 h après l'administration du CRL 40933.

souris [2] = assay: Motility reduced by hypoxic aggression (acute hypobaric anoxia); type: in vivo
Protocol: as §1
Une demi-heure après avoir reçu le CRL 40933, les souris (10 par dose, 20 témoins) sont soumises à une anoxie hypobare aiguë [dépression de 600 mm Hg (soit environ 8 x 10^4 pascals) en 90 s, puis détente de 45 s], puis elles sont placées en actimètre où leur motilité est enregistrée pendant 10 min.

souris [3] = assay: Spontaneous motility (actimeter); type: in vivo
Protocol: as §1
Une demi-heure, après avoir reçu le CRL 40933, les souris (6 par dose, 12 témoins) sont placées en actimètre où leur motilité est enregistrée pendant 30 min.

souris [4] = assay: Interaction with reserpine; type: in vivo; conditions: 128 mg/kg i.p.
Protocol: as §1
Quatre heures après l'injection intrapéritonéale de 2,5 mg/kg de réserpine, des lots de 6 souris reçoivent le CRL 40933.

souris [5] = assay: Interaction with apomorphine, mouse; type: in vivo
Protocol: as §1
Des lots de 6 souris par dose reçoivent le CRL 40933 0,5 h avant l'injection sous-cutanée d'apomorphine administrée à la dose de 1 ou 16 mg/kg.

souris mâle [6] = assay: Toxicity, DL-0; type: in vivo; conditions: i.p.
Protocol: as §1
La toxicité a été étudiée chez la souris mâle. Les résultats relatifs à la DL-0 (dose minimale non mortelle) sont donnés dans le tableau II ci-après.

rat = assay: Interaction with apomorphine, rat; type: in vivo; conditions: apomorphine 0,5 mg/kg s.c., dose not stated
Protocol: as §1
Le CRL 40933 est administré à des lots de 6 rats 0,5 h avant l'injection sous-cutanée de 0,5 mg/kg d'apomorphine.

souris [7] = assay: Asphyxic anoxia (gallamine triethiodide); type: in vivo; conditions: dose not stated
Protocol: as §1
Des lots de 10 souris par dose reçoivent le CRL 40933 30 min avant l'administration intrapéritonéale de 32 mg/kg de triiodoéthylate de gallamine.

souris [8] = assay: Interaction with oxotremorine; type: in vivo
Protocol: as §1
Le CRL 40933 est administré à des lots de 6 souris 0,5 h avant l'injection intrapéritonéale de 0,5 mg/kg d'oxotrémorine.

souris [9] = assay: Intergroup aggressiveness; type: in vivo; conditions: for agressivité intergroupes (nombre de combats): dose not stated
Protocol: as §1
Après avoir séjourné pendant 3 semaines dans chacune des moitiés d'une cage séparées par une cloison opaque, des groupes de 3 souris reçoivent le CRL 40933. 30 min plus tard, les deux groupes d'une même cage sont réunis par retrait de la cloison et on note le nombre de combats qui surviennent en 10 min.

souris mâles = assay: Global behaviour and reactivities, mouse; type: in vivo; conditions: souris
Protocol: as §1
(§3) Pour apprécier le comportement global et les réactivités, des lots de six animaux (souris mâles ou rats mâles) ont été observés avant administration de chaque produit, puis 15 min, 30 min, 1 h, 2 h, 3 h et 24 h après administration de chaque produit. Les résultats sont consignés dans le tableau III ci-après, […]

souris [10] = assay: Interaction with barbital (sleep); type: in vivo
Protocol: as §1
Une demi-heure après l'administration de CRL 40933, des lots de 10 souris reçoivent une injection intrapéritonéale de 220 mg/kg de barbital.

souris [11] = assay: Motility reduced by habituation to the enclosure; type: in vivo
Protocol: as §1
Après 18 h de séjour dans les actimètres, les souris (6 par dose, 12 témoins) reçoivent le CRL 40933. Elles sont aussitôt replacées dans leurs enceintes respectives et, 30 min plus tard, on enregistre leur motilité pendant 30 min.

souris [12] = assay: Traction test; type: in vivo; conditions: 0,5 h after administration, dose not stated
Protocol: as §1, §2

rats = assay: Interaction with amphetamine (stereotypies); type: in vivo; conditions: rat; amphétamine 2 mg/kg i.p.; doses used, not stated
Protocol: as §1
L'amphétamine (2 mg/kg)est injectée par voie intrapéritonéale à des lots de 6 rats, 30 min après l'administration de CRL 40933.

rats mâles = assay: Global behaviour and reactivities, rat; type: in vivo; conditions: 64 mg/kg i.p.
Protocol: as §1, §3

souris [13] = assay: Electroshock; type: in vivo; conditions: dose not stated
Protocol: as §1, §2

souris mâle [14] = assay: Pentobarbital-induced sleep duration; type: in vivo
Text: Les composés selon l'invention se distinguent du benzhydrylsulfinylacétamide (CRL 40476) précité par une différence d'action vis-à-vis du sommeil barbiturique. […]. Cette différence d'action qui est intéressante sur le plan thérapeutique est illustrée par le tableau IV

Solubility = conditions: for solubility: water
souris [15] = assay: Behavioural despair (forced immersion); type: in vivo; conditions: 32 mg/kg et 128 mg/kg i.p.
Protocol: as §1
Une demi-heure après avoir reçu le CRL 40933, des lots de 10 souris par dose sont placés dans un espace restreint rempli d'eau sur une hauteur de 6 cm; on note la durée d'immobilité entre la 2e et la 6e minute suivant l'immersion.

[16] = cited from earlier work
[17] = dose 128 mg/kg i.p., 0,5 h before pentobarbital

CNC(=O)C[S+]([O-])C(c1ccccc1)c1ccccc1 (stereo not drawn) [Exemple 1, N-méthyl-benzhydrylsulfinylacétamide]
Activité sur le SNC (SNC): stimulant | conclusion of the neuropsychopharmacological study: main type of CNS effect (SNC): composante excitante | nombre de passages punis (souris [1]): n'entraîne pas d'augmentation | récupération motrice après séjour bref dans une enceinte à pression réduite (souris [2]; 128 mg/kg i.p.): amélioration modérée (mais non significative) | motilité spontanée (souris [3]; 32 mg/kg et 128 mg/kg i.p.): augmentation modérée | hypothermie induite par la réserpine (souris [4]): antagonise | ptôsis réserpinique (souris [4]): sans modifier | hypothermie induite par l'apomorphine (souris [5]; 128 mg/kg i.p.): ne s'oppose pas | own effect on temperature (souris [5]; 128 mg/kg i.p.): hypothermisant | comportement de verticalisation et stéréotypies (apomorphine) (souris [5]; dose not stated): ne modifie pas | DL-O (souris mâle [6]): supérieure à 256 mg/kg | stéréotypies induites par l'apomorphine (rat): laisse inchangées | délai d'apparition des convulsions et de la mort consécutives à une anoxie asphyxique (souris [7]): ne modifie pas | action hypothermisante de l'oxotrémorine (souris [8]; 8 mg/kg à 128 mg/kg i.p.): s'oppose modérément | signes de stimulation cholinergique périphérique dus à l'oxotrémorine (souris [8]; dose not stated): laisse pratiquement inchangés | tremblements induits par l'oxotrémorine (souris [8]; dose not stated): ne modifie pas | agressivité intergroupes (nombre de combats) (souris [9]): ne modifie pas nettement | Observations (comportement global et réactivités) (souris mâles; 64 mg/kg i.p.): excitation | Observations (comportement global et réactivités) (souris mâles; 128 mg/kg i.p.): excitation - hypothermie (-1,5°C) pendant 0,5 h | hypothermie (souris mâles; 128 mg/kg i.p.): -1,5 °C | Observations (comportement global et réactivités) (souris mâles; 256 mg/kg i.p.): dyspnée, excitation, démarche titu-bante | mortalité (souris mâles; 256 mg/kg i.p.): pas de mortalité | durée du sommeil barbiturique (souris [10]; 32 mg/kg i.p.): n'entraîne pas de modifications sensibles | nombre de souris endormies (souris [10]; 32 mg/kg i.p.): diminution nette | durée du sommeil barbiturique (souris [10]; 128 mg/kg i.p.): diminue nettement | activité motrice chez la souris habituée à son enceinte (souris [11]; 8 mg/kg, 32 mg/kg et surtout 128 mg/kg i.p.): reprise d'activité motrice | déficit moteur (traction) (souris [12]): ne provoque pas d'incapacité motrice majeure | stéréotypies amphétaminiques (rats): ne modifie pratiquement pas | Observations (comportement global et réactivités) (rats mâles): mydriase pendant 3 h | effets convulsivants de l'électrochoc (souris [13]): ne s'oppose pas | Action sur la durée du sommeil induit par le pentobarbital (50 mg/kg i.p.) effet (souris mâle [14]; [17]): (a) | solubilité dans l'éther et l'acétate d'éthyle (Solubility): insoluble | solubilité dans le méthanol, l'éthanol et l'acétoné (Solubility): soluble | solubility (Solubility): < 1000 µg/mL | durée d'immobilité de la souris placée en immersion forcée (souris [15]): diminue nettement

O=C(C[S+]([O-])C(c1ccccc1)c1ccccc1)N1CCCCC1 (stereo not drawn) [Exemple 5, N-(benzhydrylsulfinylacétyl)-pipéridine]
Activité sur le SNC (SNC): sédatif | conclusion of the neuropsychopharmacological study: main type of CNS effect (SNC): type sédatif | mobilité réduite (agression hypoxique) (souris [2]; dose not stated): n'agit pas nettement | motilité spontanée (souris [3]; all doses used (8 mg/kg à 256 mg/kg), intensity increasing with dose): hypomotilité | DL-O (souris mâle [6]): supérieure à 1024 mg/kg | agressivité intergroupes (souris [9]; 32 mg/kg i.p.): diminue de moitié | agressivité intergroupes (nombre de combats) (souris [9]): effet antiagressif | mobilité réduite (habituation à l'enceinte) (souris [11]; souris, dose not stated): n'agit pas nettement | Action sur la durée du sommeil induit par le pentobarbital (50 mg/kg i.p.) effet (souris mâle [14]; [17]): (a) | solubility (Solubility): < 1000 µg/mL

NC(=O)C[S+]([O-])C(c1ccccc1)c1ccccc1 (stereo not drawn) [CRL 40476, benzhydrylsulfinylacétamide, reference compound]
Activité sur le SNC (SNC): stimulant | excitation avec hyperréactivité ([16]; in vivo): présence | potentialisation des effets de l'apomorphine et de l'amphétamine ([16]; in vivo): absence | stéréotypies ([16]; sauf à fortes doses): absence | Action sur la durée du sommeil induit par le pentobarbital (50 mg/kg i.p.) effet (souris mâle [14]; dose de 8 à 256 mg/kg i.p., 0,5 h before pentobarbital): (b) (pas de modification significative de la durée du sommeil.) | durée du sommeil barbiturique induit par le pentobarbital (souris mâle [14]; pentobarbital 50 mg/kg i.p. 0,5 h after i.p. test product, dose not stated): ne modifie pas
